Reference: ChEMBL document CHEMBL3872244, “Synthesis, evaluation and molecular modelling studies of 2-(carbazol-3-yl)-2-oxoacetamide analogues as a new class of potential pancreatic lipase inhibitors” (Bioorg Med Chem, 2017)
Calls of active or inactive are those of the source. The calls are words filed in the database; no cut-off is given here.

Experiments:
[1] = target: T1, Pancreatic triacylglycerol lipase (Sus scrofa, UniProt P00591); assay: Inhibition of porcine pancreatic lipase assessed as reduction in 4-nitrophenol formation from 4-nitrophenyl butyrate substrate preincubated for 30 mins followed by substrate addition measured after 5 mins by spectrophotometer
T1 sequence (P00591 whole entry): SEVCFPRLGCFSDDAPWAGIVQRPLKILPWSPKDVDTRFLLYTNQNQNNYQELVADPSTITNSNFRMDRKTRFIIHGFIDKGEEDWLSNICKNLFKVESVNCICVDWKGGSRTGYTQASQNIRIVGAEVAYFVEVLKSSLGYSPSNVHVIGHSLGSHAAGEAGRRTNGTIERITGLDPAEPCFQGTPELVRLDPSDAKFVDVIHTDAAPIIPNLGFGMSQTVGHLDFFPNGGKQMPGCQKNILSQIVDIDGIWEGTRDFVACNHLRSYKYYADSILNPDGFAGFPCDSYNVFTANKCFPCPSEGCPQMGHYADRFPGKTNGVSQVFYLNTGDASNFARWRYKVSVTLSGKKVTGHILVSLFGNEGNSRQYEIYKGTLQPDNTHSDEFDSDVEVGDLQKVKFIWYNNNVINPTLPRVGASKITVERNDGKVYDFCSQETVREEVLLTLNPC

[2] = target: T1, Pancreatic triacylglycerol lipase; assay: Competitive inhibition of porcine pancreatic lipase 4-nitrophenyl butyrate substrate preincubated for 30 mins followed by substrate addition measured after 5 mins by Dixon plot method
[3] = target: T2, Pancreatic triacylglycerol lipase (Sus scrofa) (UniProt P00591); assay: Inhibition of porcine pancreatic lipase using tributyrin as substrate preincubated for 30 mins measured at 1 min time interval for 5 mins in presence of NaTDC in reaction mixture by pH-Stat method
T2 sequence (whole entry): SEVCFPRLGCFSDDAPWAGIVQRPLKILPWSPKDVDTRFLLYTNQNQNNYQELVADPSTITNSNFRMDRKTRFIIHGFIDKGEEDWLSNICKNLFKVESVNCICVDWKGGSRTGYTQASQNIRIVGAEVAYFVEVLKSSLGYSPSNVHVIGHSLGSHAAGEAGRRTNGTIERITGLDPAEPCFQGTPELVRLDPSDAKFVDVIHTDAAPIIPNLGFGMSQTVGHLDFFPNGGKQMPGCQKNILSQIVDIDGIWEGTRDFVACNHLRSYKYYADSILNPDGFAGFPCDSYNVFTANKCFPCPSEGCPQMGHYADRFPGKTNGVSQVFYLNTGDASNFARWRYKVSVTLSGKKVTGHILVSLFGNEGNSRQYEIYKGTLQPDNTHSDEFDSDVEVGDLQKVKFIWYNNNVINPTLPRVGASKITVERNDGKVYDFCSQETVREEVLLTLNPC

[4] = target: T2, Pancreatic triacylglycerol lipase (Sus scrofa); assay: Inhibition of porcine pancreatic lipase using tributyrin as substrate incubated for 30 mins measured at 1 min time interval for 5 mins in presence of NaTDC in incubation medium by pH-Stat method
[5] = target: T3, Pancreatic triacylglycerol lipase (Homo sapiens, UniProt P16233); assay: Inhibition of pancreatic lipase (unknown origin)
T3 sequence (P16233 whole entry): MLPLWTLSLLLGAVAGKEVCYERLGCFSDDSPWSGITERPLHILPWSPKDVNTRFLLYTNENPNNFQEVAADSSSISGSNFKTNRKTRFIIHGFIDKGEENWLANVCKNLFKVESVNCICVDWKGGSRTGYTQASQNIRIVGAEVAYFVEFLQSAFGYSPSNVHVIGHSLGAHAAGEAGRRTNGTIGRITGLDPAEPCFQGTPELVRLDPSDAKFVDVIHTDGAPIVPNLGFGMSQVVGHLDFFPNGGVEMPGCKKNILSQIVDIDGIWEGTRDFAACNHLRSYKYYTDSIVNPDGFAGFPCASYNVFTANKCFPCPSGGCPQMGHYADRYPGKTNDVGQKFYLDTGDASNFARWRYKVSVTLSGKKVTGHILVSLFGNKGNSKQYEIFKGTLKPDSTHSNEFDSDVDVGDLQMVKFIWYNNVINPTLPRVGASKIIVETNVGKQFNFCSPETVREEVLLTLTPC

[6] = compound: CCCCCCCCCCC[C@@H](C[C@@H]1OC(=O)[C@H]1CCCCCC)OC(=O)[C@H](CC(C)C)NC=O; assay: (§1) Competitive inhibition of porcine pancreatic lipase assessed as enzyme Km at 5 uM in presence of varying levels of 4-nitophenyl butyrate by Lineweaver-burk plot method; details: Sus scrofa
[7] = compound: COc1cc(NC(=O)C(=O)c2ccc3[nH]c4ccccc4c3c2)cc(OC)c1OC; assay: as §1; details: Sus scrofa
[8] = compound: COc1cc(NC(=O)C(=O)c2ccc3c(c2)c2ccccc2n3Cc2ccc(Cl)cc2)cc(OC)c1OC; assay: as §1; details: Sus scrofa
[9] = compound: COc1ccc(NC(=O)C(=O)c2ccc3c(c2)c2ccccc2n3Cc2ccc(Cl)cc2)cc1OC; assay: as §1; details: Sus scrofa
[10] = compound: CCCCCCCCCCC[C@@H](C[C@@H]1OC(=O)[C@H]1CCCCCC)OC(=O)[C@H](CC(C)C)NC=O; assay: (§2) Competitive inhibition of porcine pancreatic lipase assessed as enzyme Km at 10 uM in presence of varying levels of 4-nitophenyl butyrate by Lineweaver-burk plot method; details: Sus scrofa
[11] = compound: COc1cc(NC(=O)C(=O)c2ccc3[nH]c4ccccc4c3c2)cc(OC)c1OC; assay: as §2; details: Sus scrofa
[12] = compound: COc1cc(NC(=O)C(=O)c2ccc3c(c2)c2ccccc2n3Cc2ccc(Cl)cc2)cc(OC)c1OC; assay: as §2; details: Sus scrofa
[13] = compound: COc1ccc(NC(=O)C(=O)c2ccc3c(c2)c2ccccc2n3Cc2ccc(Cl)cc2)cc1OC; assay: as §2; details: Sus scrofa
[14] = compound: CCCCCCCCCCC[C@@H](C[C@@H]1OC(=O)[C@H]1CCCCCC)OC(=O)[C@H](CC(C)C)NC=O; assay: (§3) Competitive inhibition of porcine pancreatic lipase assessed as enzyme Km at 20 uM in presence of varying levels of 4-nitophenyl butyrate by Lineweaver-burk plot method; details: Sus scrofa
[15] = compound: COc1cc(NC(=O)C(=O)c2ccc3[nH]c4ccccc4c3c2)cc(OC)c1OC; assay: as §3; details: Sus scrofa
[16] = compound: COc1cc(NC(=O)C(=O)c2ccc3c(c2)c2ccccc2n3Cc2ccc(Cl)cc2)cc(OC)c1OC; assay: as §3; details: Sus scrofa
[17] = compound: COc1ccc(NC(=O)C(=O)c2ccc3c(c2)c2ccccc2n3Cc2ccc(Cl)cc2)cc1OC; assay: as §3; details: Sus scrofa
[18] = compound: CCCCCCCCCCC[C@@H](C[C@@H]1OC(=O)[C@H]1CCCCCC)OC(=O)[C@H](CC(C)C)NC=O; assay: (§4) Competitive inhibition of porcine pancreatic lipase assessed as enzyme Vmax in presence of varying levels of 4-nitophenyl butyrate by Lineweaver-burk plot method; details: Sus scrofa
[19] = compound: COc1cc(NC(=O)C(=O)c2ccc3[nH]c4ccccc4c3c2)cc(OC)c1OC; assay: as §4; details: Sus scrofa
[20] = compound: COc1cc(NC(=O)C(=O)c2ccc3c(c2)c2ccccc2n3Cc2ccc(Cl)cc2)cc(OC)c1OC; assay: as §4; details: Sus scrofa
[21] = compound: COc1ccc(NC(=O)C(=O)c2ccc3c(c2)c2ccccc2n3Cc2ccc(Cl)cc2)cc1OC; assay: as §4; details: Sus scrofa

Molecule `COc1ccc(NC(=O)C(=O)c2ccc3[nH]c4ccccc4c3c2)cc1OC` has an IC50 [1] of 44.1 µM.

For `O=C(Nc1ccc2ncccc2c1)C(=O)c1ccc2c(c1)c1ccccc1n2Cc1ccc(Cl)cc1`, the IC50 [1] was 23 µM.

With `Cc1cnc(NC(=O)C(=O)c2ccc3c(c2)c2ccccc2n3Cc2ccc(Cl)cc2)s1` the IC50 [1] was 32.8 µM.

Work on `COc1cc(NC(=O)C(=O)c2ccc3[nH]c4ccccc4c3c2)cc(OC)c1OC` yielded an IC50 [1] of 9.58 µM, a Ki [2] of 21.6 µM and an XI50 [3] of 26.2. For the same molecule, the inhibition [4] was “Active”.

`COc1ccc2[nH]c3c4c(c(C)cc3c2c1)OC(C)(C)C=C4` [KOENIMBINE] showed an IC50 [5] of 169 µM.

`COc1ccc(NC(=O)C(=O)c2ccc3c(c2)c2ccccc2n3Cc2ccc(Cl)cc2)cc1` showed an IC50 [1] of 14.8 µM.

In the case of `O=C(Nc1ccncc1)C(=O)c1ccc2c(c1)c1ccccc1n2Cc1ccc(Cl)cc1`, the IC50 [1] is reported as 19.9 µM.

In the case of `O=C(Nc1ccncc1)C(=O)c1ccc2[nH]c3ccccc3c2c1`, the IC50 [1] is reported as 29.4 µM.

`COc1cc(NC(=O)C(=O)c2ccc3c(c2)c2ccccc2n3Cc2ccc(Cl)cc2)cc(OC)c1OC` showed an IC50 [1] of 8.72 µM, a Ki [2] of 19.6 µM and an XI50 [3] of 21.9. The inhibition [4] was “Active”.

With `COc1ccc(NC(=O)C(=O)c2ccc3[nH]c4ccccc4c3c2)cc1` the IC50 [1] was 19.3 µM.

`CCn1c2ccccc2c2cc(C(=O)C(=O)Nc3cc(OC)c(OC)c(OC)c3)ccc21` showed an IC50 [1] of 11.4 µM.

In the case of `O=C(Nc1ccc(F)cc1)C(=O)c1ccc2c(c1)c1ccccc1n2Cc1ccc(Cl)cc1`, the IC50 [1] is reported as 28 µM.

In the case of `CCn1c2ccccc2c2cc(C(=O)C(=O)Nc3ccccc3)ccc21`, the IC50 [1] is reported as 24.2 µM.

Work on `CCn1c2ccccc2c2cc(C(=O)C(=O)Nc3ccc4ncccc4c3)ccc21` yielded an IC50 [1] of 15.5 µM.

`CN(C)c1ccc(NC(=O)C(=O)c2ccc3c(c2)c2ccccc2n3Cc2ccc(Cl)cc2)cc1` was tested, and the IC50 [1] was 14.8 µM.

With `Cn1c2ccccc2c2cc(C(=O)C(=O)Nc3ccccc3)ccc21` the IC50 [1] was 36.2 µM.

Work on `CCCCCCCCCCC[C@@H](C[C@@H]1OC(=O)[C@H]1CCCCCC)OC(=O)[C@H](CC(C)C)NC=O` yielded an XI50 [3] of 3.14.

Molecule `COc1cc(NC(=O)C(=O)c2ccc3c(c2)c2ccccc2n3C)cc(OC)c1OC` has an IC50 [1] of 23.1 µM.

With `O=C(Nc1ccccc1)C(=O)c1ccc2c(c1)c1ccccc1n2Cc1ccc(Cl)cc1` the IC50 [1] was 13.9 µM.

For `O=C(Nc1ccccc1)C(=O)c1ccc2[nH]c3ccccc3c2c1`, the IC50 [1] was 29.7 µM.

Work on `COc1cc2[nH]c3c4c(c(C)cc3c2cc1OC)OC(C)(C)C=C4` yielded an IC50 [5] of 429 µM.

In the case of `COc1cccc(NC(=O)C(=O)c2ccc3[nH]c4ccccc4c3c2)c1`, the IC50 [1] is reported as 33 µM.

`CC(C)=CCCC1(C)C=Cc2c(c(C)cc3c2[nH]c2ccccc23)O1` (stereo not drawn) [MAHANIMBINE] showed an IC50 [5] of 17.9 µM.

`CCn1c2ccccc2c2cc(C(=O)C(=O)Nc3ccc(OC)c(OC)c3)ccc21` gave an IC50 [1] of 16.4 µM.

In the case of `COc1ccc(NC(=O)C(=O)c2ccc3c(c2)c2ccccc2n3Cc2ccc(Cl)cc2)cc1OC`, the IC50 [1] is reported as 6.31 µM, the Ki [2] is reported as 17.5 µM and the XI50 [3] is reported as 21.9. For the same molecule, the inhibition [4] was “Active”.

`Cc1ccc(NC(=O)C(=O)c2ccc3c(c2)c2ccccc2n3Cc2ccc(Cl)cc2)cc1` was tested, and the IC50 [1] was 13.5 µM.

`COc1cccc(NC(=O)C(=O)c2ccc3c(c2)c2ccccc2n3Cc2ccc(Cl)cc2)c1` was tested, and the IC50 [1] was 26.6 µM.

Molecule `CCn1c2ccccc2c2cc(C(=O)C(=O)Nc3ccc(N(C)C)cc3)ccc21` has an IC50 [1] of 56.2 µM.

B1: Pancreatic triacylglycerol lipase (Sus scrofa), P00591 (protein)
chain: SEVCFPRLGCFSDDAPWAGIVQRPLKILPWSPKDVDTRFLLYTNQNQNNYQELVADPSTITNSNFRMDRKTRFIIHGFIDKGEEDWLSNICKNLFKVESVNCICVDWKGGSRTGYTQASQNIRIVGAEVAYFVEVLKSSLGYSPSNVHVIGHSLGSHAAGEAGRRTNGTIERITGLDPAEPCFQGTPELVRLDPSDAKFVDVIHTDAAPIIPNLGFGMSQTVGHLDFFPNGGKQMPGCQKNILSQIVDIDGIWEGTRDFVACNHLRSYKYYADSILNPDGFAGFPCDSYNVFTANKCFPCPSEGCPQMGHYADRFPGKTNGVSQVFYLNTGDASNFARWRYKVSVTLSGKKVTGHILVSLFGNEGNSRQYEIYKGTLQPDNTHSDEFDSDVEVGDLQKVKFIWYNNNVINPTLPRVGASKITVERNDGKVYDFCSQETVREEVLLTLNPC
Work on B1 yielded a Km [6] of 197 µM, a Km [7] of 123 µM and a Km [8] of 126 µM. The Km [9] was 129 µM, the Km [10] was 228 µM and the Km [11] was 151 µM. The Km [12] was 152 µM, the Km [13] was 156 µM and the Km [14] was 253 µM. The Km [15] was 163 µM, the Km [16] was 165 µM and the Km [17] was 179 µM. For the same molecule, the Vmax [18] was 15.2 µM/min, the Vmax [19] was 15 µM/min and the Vmax [20] was 15.5 µM/min. It also gave a Vmax [21] of 15.2 µM/min.
